Measurements: the supplement of paper PMC10307832

Experiments:
Assay in all cases: relative viability (nuclei count vs DMSO), 5 days (fraction); higher = more cells survive
[1] = compound: CC1=C(C(=O)N2C=CSC2=N1)CCN3CCC(=C(C4=CC=CC=C4)C5=CC=C(C=C5)F)CC3 + CCNC(=O)c1noc(-c2cc(C(C)C)c(O)cc2O)c1-c1ccc(CN2CCOCC2)cc1 [Luminespib] (partner 0.01 µM)
Procedure, shortened: (§1)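 Relative viability equals treated-well nuclei counts divided by vehicle-well nuclei counts. Counts came from 4× images of lung cancer cell lines grown in 1536-well plates for 5 days after pin-tool dosing on the day after seeding. Dosing used one drug alone or a fixed anchor-drug dose plus five library-drug doses (not always all listed) in √10 steps, and values are medians of duplicate plates.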

[2] = compound: CC1=C(C(=O)N2C=CSC2=N1)CCN3CCC(=C(C4=CC=CC=C4)C5=CC=C(C=C5)F)CC3 + COc1cc2c(Oc3ccc(NC(=O)C4(C(=O)Nc5ccc(F)cc5)CC4)cc3F)ccnc2cc1OCCCN1CCOCC1 [Foretinib] (partner 0.25 µM)
Procedure, shortened: as §1

[3] = compound: CC1=C(C(=O)N2C=CSC2=N1)CCN3CCC(=C(C4=CC=CC=C4)C5=CC=C(C=C5)F)CC3 + Cc1nc(Nc2ncc(C(=O)Nc3c(C)cccc3Cl)s2)cc(N2CCN(CCO)CC2)n1 [Dasatinib] (partner 0.075 µM)
Procedure, shortened: as §1

[4] = compound: CC1=C(C(=O)N2C=CSC2=N1)CCN3CCC(=C(C4=CC=CC=C4)C5=CC=C(C=C5)F)CC3 + Nc1ncn([C@H]2C[C@H](O)[C@@H](CO)O2)c(=O)n1 [Decitabine] (partner 2 µM)
Procedure, shortened: as §1

| Cell Line | relative viability ([1]; first compound 0.08 µM) | relative viability ([1]; first compound 0.253 µM) | relative viability ([1]; first compound 0.8 µM) | relative viability ([1]; first compound 2.53 µM) | relative viability ([1]; first compound 8 µM) | relative viability ([2]; first compound 0.08 µM) | relative viability ([2]; first compound 0.253 µM) | relative viability ([2]; first compound 0.8 µM) | relative viability ([2]; first compound 2.53 µM) | relative viability ([2]; first compound 8 µM) | relative viability ([3]; first compound 0.08 µM) | relative viability ([3]; first compound 0.253 µM) | relative viability ([3]; first compound 0.8 µM) | relative viability ([3]; first compound 2.53 µM) | relative viability ([3]; first compound 8 µM) | relative viability ([4]; first compound 0.08 µM) | relative viability ([4]; first compound 0.253 µM) | relative viability ([4]; first compound 0.8 µM) | relative viability ([4]; first compound 2.53 µM) | relative viability ([4]; first compound 8 µM) |
| --- | --- | --- | --- | --- | --- | --- | --- | --- | --- | --- | --- | --- | --- | --- | --- | --- | --- | --- | --- | --- |
| LOU-NH91 | 0.377 | 0.34 | 0.335 | 0.366 | 0.361 | 0.91 | 0.926 | 1.03 | 0.942 | 0.906 | 0.527 | 0.586 | 0.557 | 0.594 | 0.435 | 0.796 | 0.832 | 0.834 | 0.926 | 0.792 |
| LU99A | 0.274 | 0.262 | 0.282 | 0.205 | 0.259 | 0.793 | 0.771 | 0.832 | 0.822 | 0.802 | 0.507 | 0.544 | 0.57 | 0.551 | 0.422 | 1.18 | 0.988 | 0.763 | 0.989 | 0.907 |
| LXF-289 | 0.513 | 0.713 | 0.599 | 0.839 | 0.529 | 1 | 1.01 | 1.01 | 1.01 | 0.879 | 0.276 | 0.18 | 0.214 | 0.209 | 0.189 | 0.381 | 0.43 | 0.406 | 0.426 | 0.349 |
| NCI-H23 | 0.205 | 0.207 | 0.22 | 0.23 | 0.241 | 0.945 | 0.902 | 0.924 | 1.02 | 0.795 | 0.659 | 0.674 | 0.867 | 0.703 | 0.518 | 0.355 | 0.308 | 0.332 | 0.323 | 0.119 |
| NCI-H322M | 0.768 | 0.899 | 0.928 | 0.888 | 0.81 | 0.86 | 1.01 | 1.11 | 0.942 | 0.9 | 0.267 | 0.238 | 0.246 | 0.254 | 0.27 | 0.719 | 0.781 | 0.688 | 0.814 | 0.767 |
| NCI-H358 | – | 0.339 | 0.384 | 0.307 | 0.261 | 0.568 | 0.665 | 0.695 | 0.87 | 0.483 | 0.175 | 0.21 | 0.133 | 0.153 | 0.218 | 0.211 | 0.235 | 0.244 | 0.256 | 0.202 |
| NCI-H441 | 0.314 | 0.477 | 0.369 | 0.361 | 0.339 | 1.07 | 0.968 | 1.05 | 0.976 | 0.84 | 0.526 | 0.678 | 0.679 | 0.541 | 0.507 | 0.263 | 0.255 | 0.242 | 0.247 | 0.239 |
| NCI-H460 | 0.0343 | 0.034 | 0.0356 | 0.0314 | 0.0271 | 0.782 | 0.796 | 1.16 | 1.13 | 0.232 | 0.508 | 0.444 | 0.486 | 0.574 | 0.395 | 0.581 | 0.445 | 0.555 | 0.572 | 0.157 |
| NCI-H520 | 0.202 | 0.236 | 0.25 | 0.251 | 0.248 | 0.778 | 0.846 | 0.924 | 0.873 | 0.641 | 0.208 | 0.195 | 0.221 | 0.209 | 0.182 | 0.471 | 0.565 | 0.519 | 0.515 | 0.445 |
| NCI-H596 | 1.05 | 0.978 | 1.23 | 1.08 | 0.655 | 0.797 | 0.936 | 0.885 | 1.1 | 0.519 | 0.636 | 0.653 | 0.612 | 0.627 | 0.421 | 0.908 | 0.939 | 1.06 | 1.01 | 0.761 |
| NCI-H647 | 0.142 | 0.157 | 0.153 | 0.119 | 0.179 | 1.03 | 1.23 | 1.24 | 1.2 | 0.65 | 0.12 | 0.15 | 0.167 | 0.18 | 0.0953 | 0.389 | 0.412 | 0.378 | 0.505 | 0.297 |
| NCI-H650 | 0.573 | 0.827 | 0.951 | 0.877 | 0.683 | 0.994 | 1.11 | 1.13 | 1.17 | 1.06 | 0.474 | 0.504 | 0.388 | 0.546 | 0.46 | 0.342 | 0.363 | 0.339 | 0.319 | 0.274 |
| NCI-H661 | 1.03 | 0.984 | 0.928 | 1.04 | 0.598 | 0.871 | 1.02 | 0.983 | 1.05 | 0.814 | 0.862 | 0.847 | 0.75 | 0.913 | 0.628 | 0.528 | 0.623 | 0.55 | 0.528 | 0.387 |
| NCI-H727 | 0.284 | 0.668 | 0.346 | 0.331 | 0.38 | 0.846 | 1.01 | 0.89 | 0.921 | 0.624 | 0.319 | 0.338 | 0.394 | 0.396 | 0.319 | 0.861 | 0.974 | 0.888 | 1.03 | 0.792 |
| NCI-H838 | 0.298 | 0.263 | 0.227 | 0.318 | 0.259 | 0.827 | 1.03 | 1.04 | 1.12 | 0.9 | 0.295 | 0.27 | 0.258 | 0.31 | 0.282 | 0.488 | 0.459 | 0.472 | 0.547 | 0.414 |
